Laboratory results reported in patent publication EP4603105A1, “PHARMACEUTICAL COMPOSITION CONTAINING CYCLIC COMPOUND HAVING SELECTIVE KRAS INHIBITORY EFFECT AGAINST HRAS AND NRAS” (CHUGAI SEIYAKU KABUSHIKI KAISHA, priority 2022, dated 2024).
pIC50: −log10 of the molar value. Read-outs that look alike come from different tables or passages of the source. Where a SMILES comes first, the peptide text is derived from it. Bridges are numbered along the chain shown (N, C = ends). [ ]: non-standard residue; d: D form. The star is where a group is joined. hPhe(3-Cl-4-CF3) = N[C@@H](CCc1ccc(C(F)(F)F)c(Cl)c1)C(=O)O; NPrPhe(4-CF3) = CCCN[C@@H](Cc1ccc(C(F)(F)F)cc1)C(=O)O; NMeGly(cPent) = CN[C@H](C(=O)O)C1CCCC1; Pro(4,4-F2) = O=C(O)[C@@H]1CC(F)(F)CN1; NMeNva(3-Et) = CCC(CC)[C@H](NC)C(=O)O; NMeD = CN[C@@H](CC(=O)O)C(=O)O; NMeL = CN[C@@H](CC(C)C)C(=O)O; Morpholide = C1CN(*)CCO1; Ac4c = NC1(C(=O)O)CCC1; NEtG = CCNCC(=O)O; Sar = CNCC(=O)O

What was measured:
[1] = system: human lung cancer strain NCI-H441; assay type: cell-based
In short: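 Signal came from […] measured per well once the reagent was added. Beforehand, cells were cultured at 37°C and 5% carbon dioxide on a compound series serially diluted in dimethyl sulfoxide.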

[2] = target: GDP-bound NRAS wild-type protein (Homo sapiens, UniProt P01111); test: Binding to NRAS by surface plasmon resonance (SPR), KD and KD ratio to KRAS
In short: (§1)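 Each cycle, GDP-bound biotin-Avi RAS was captured (~100–300 RU), compound concentrations were injected low to high for 75 s each at 100 µL/min, then the chip was regenerated. Buffer: HBS pH 7.4, 10 mM MgCl2, 10 µM GDP, 1 mM DTT, 4% DMSO; 30°C. KD from a 1:1 binding model.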

HRAS wild-type protein = HRAS wild-type protein (Homo sapiens, UniProt P01112); test: Binding to HRAS by surface plasmon resonance (SPR), KD and KD ratio to KRAS
In short: as §1

[3] = ratio of the KD value with respect to GDP-bound NRAS wild-type protein to the KD value with respect to KRAS
[4] = ratio of the KD value with respect to HRAS wild-type protein to the KD value with respect to KRAS
[5] = ratio of KD value for GDP-bound NRAS wild-type protein to KD value for KRAS (SPR)
[6] = ratio of KD value for HRAS wild-type protein to KD value for KRAS (SPR)
[7] = ratio of KD for GDP-bound NRAS wild-type protein to KD for KRAS
[8] = ratio of KD for HRAS wild-type protein to KD for KRAS

Chain of GDP-bound NRAS wild-type protein (P01111 whole entry): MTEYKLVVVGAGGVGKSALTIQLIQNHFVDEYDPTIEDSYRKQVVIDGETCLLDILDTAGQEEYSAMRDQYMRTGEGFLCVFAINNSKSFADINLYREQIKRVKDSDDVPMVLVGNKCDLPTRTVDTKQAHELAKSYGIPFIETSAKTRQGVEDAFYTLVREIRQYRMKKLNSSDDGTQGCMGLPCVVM
Chain of HRAS wild-type protein (P01112 whole entry): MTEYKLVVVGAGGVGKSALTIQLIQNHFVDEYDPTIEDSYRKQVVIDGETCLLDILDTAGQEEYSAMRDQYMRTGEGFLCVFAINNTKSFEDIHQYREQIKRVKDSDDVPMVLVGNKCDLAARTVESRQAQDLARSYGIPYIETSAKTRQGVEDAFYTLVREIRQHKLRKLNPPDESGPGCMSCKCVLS

Structure (SMILES) | pIC50 [1] | NRAS /KRAS [2, 3] | HRAS /KRAS (HRAS wild-type protein; [4]) | NRAS /KRAS [2, 7] | HRAS /KRAS (HRAS wild-type protein; [8]) | further results
CCCN1C(=O)CN(C)C(=O)CN(C)C(=O)[C@H]([C@@H](C)CC)NC(=O)[C@H](CC(C)C)N(C)C(=O)C[C@@H](C(=O)N(C)C)N(C)C(=O)[C@H](C(CC)CC)N(C)C(=O)C2(CCC2)NC(=O)[C@@H]2CCCN2C(=O)[C@H](CCc2ccc(C(F)(F)F)c(Cl)c2)NC(=O)CN(C)C(=O)[C@@H]1Cc1ccc(C(F)(F)F)cc1 [PP1960] ([NMeL]I[Sar][Sar][NPrPhe(4-CF3)][Sar][hPhe(3-Cl-4-CF3)]P[Ac4c][NMeNva(3-Et)][NMeD]-NMe2; lactam N-11) | 8.22 | B (a compound having 3 or more and less than 10 is denoted as B) | C (A compound having a KD ratio of 0.1 or more and less than 3 is denoted as C) |  |  | 
CCC[C@H]1C(=O)N[C@@H]([C@@H](C)CC)C(=O)N2CCC[C@H]2C(=O)N(C)[C@H]2C/C=C\CCN(C2=O)[C@@H](Cc2ccc(C)cc2)C(=O)N(C)CC(=O)N[C@@H](CCc2ccc(C(F)(F)F)c(OC)c2)C(=O)N2C[C@H](OCC)C[C@H]2C(=O)N(C)C2(CCC2)C(=O)N(C)[C@@H](C(CC)CC)C(=O)N(C)[C@H](C(=O)N(C)C)CC(=O)N1C [PP2329] | 8.19 | A (a compound having 10 or more and less than 20 is denoted as A) | A (a compound having 10 or more and less than 20 is denoted as A) |  |  | 
CC[C@H](C)[C@@H]1NC(=O)[C@H](CC2CC2)N(C)C(=O)C[C@@H](C(=O)N(CC)CC)N(C)C(=O)[C@H](C2CCCC2)N(C)C(=O)C2(CC(C)(C)C2)NC(=O)[C@@H]2C[C@@H](F)CN2C(=O)[C@H](CCc2cc(F)c(C(F)(F)F)c(F)c2)NC(=O)CN(C)C(=O)[C@H](Cc2ccc(C(F)(F)F)cc2)N2CC/C=C\C[C@@H](C2=O)N(C)C(=O)CN(C)C1=O [PP1571] | 8.17 |  |  |  |  | NRAS /KRAS [2, 5]: A (a compound having 10 or more and less than 20 is denoted as A); HRAS /KRAS (HRAS wild-type protein; [6]): A (a compound having 10 or more and less than 20 is denoted as A)
CCO[C@@H]1C[C@H]2C(=O)NC3(CCC3)C(=O)N(C)[C@@H](C3CCCC3)C(=O)N(C)[C@H](C(=O)N(C)CC)CC(=O)N(C)[C@@H](C)C(=O)N[C@@H]([C@@H](C)CC)C(=O)N(C)CC(=O)N(C)[C@H]3C/C=C\CCN(C3=O)[C@@H](Cc3ccc(C(F)(F)F)cc3)C(=O)N(C)CC(=O)N[C@@H](CCc3cc(F)c(C(F)(F)F)c(F)c3)C(=O)N2C1 [PP1302] | 8.04 |  |  |  |  | NRAS /KRAS ([2]; ratio of KD with respect to GDP-bound NRAS wild-type protein to KD with respect to KRAS): A (a compound having 10 or more and less than 20 is denoted as A); HRAS /KRAS (HRAS wild-type protein; ratio of KD with respect to HRAS wild-type protein to KD with respect to KRAS): A (a compound having 10 or more and less than 20 is denoted as A)
CCCN1C(=O)CN(C)C(=O)CN(CC)C(=O)[C@H]([C@@H](C)CC)NC(=O)[C@H](CC(C)C)N(C)C(=O)C[C@@H](C(=O)N2CCOCC2)NC(=O)[C@H](C2CCCC2)N(C)C(=O)C2(CCC2)NC(=O)[C@@H]2CC(F)(F)CN2C(=O)[C@H](CCc2ccc(C(F)(F)F)c(Cl)c2)NC(=O)CN(C)C(=O)[C@@H]1Cc1ccc(C(F)(F)F)cc1 [PP0334] ([NMeL]I[NEtG][Sar][NPrPhe(4-CF3)][Sar][hPhe(3-Cl-4-CF3)][Pro(4,4-F2)][Ac4c][NMeGly(cPent)]D-Morpholide; lactam N-11) | 6.89 |  |  | B (a compound having 3 or more and less than 10 is denoted as B) | C (A compound having a KD ratio of 0.1 or more and less than 3 is denoted as C) | 
CCO[C@@H]1C[C@H]2C(=O)NC3(CC(C)(C)C3)C(=O)N(C)[C@@H](C(CC)CC)C(=O)N(C)[C@H](C(=O)N(C)C)CC(=O)N(C)[C@@H](C)C(=O)N[C@@H]([C@@H](C)CC)C(=O)N(C)CC(=O)N(C)[C@H]3C/C=C\CCN(C3=O)[C@@H](Cc3ccc(C)cc3)C(=O)N(C)CC(=O)N[C@@H](CCc3ccc(Cl)c(Cl)c3)C(=O)N2C1 [PP2186] | 7.47 | AA (a compound having 20 or more is denoted as AA) | A (a compound having 10 or more and less than 20 is denoted as A) |  |  | 
CCC[C@H]1C(=O)N[C@@H]([C@@H](C)CC)C(=O)N(C)CC(=O)N(C)[C@H]2C/C=C\CCN(C2=O)[C@@H](Cc2ccc(C(F)(F)F)cc2)C(=O)N(C)CC(=O)N[C@@H](CCc2ccc(C(F)(F)F)c(OC)c2)C(=O)N2CCCC[C@H]2C(=O)NC2(CC(C)(C)C2)C(=O)N(C)[C@@H](C(CC)CC)C(=O)N(C)[C@H](C(=O)N(C)C)CC(=O)N1C [PP2934] | 6.97 |  |  | AA (a compound having 20 or more is denoted as AA) | A (a compound having 10 or more and less than 20 is denoted as A) | 
CCO[C@@H]1C[C@H]2C(=O)NC3(CC(F)(F)C3)C(=O)N(C)[C@@H](C3CCCC3)C(=O)N(C)[C@H](C(=O)N3CCOCC3)CC(=O)N(C)[C@@H](COC)C(=O)N[C@@H]([C@@H](C)CC)C(=O)N(C)CC(=O)N(C)[C@H]3CCCCCN(C3=O)[C@@H](Cc3ccc(C(F)(F)F)cc3)C(=O)N(C)CC(=O)N[C@@H](CCc3cc(F)c(C(F)(F)F)c(F)c3)C(=O)N2C1 [PP0843] | 7.41 |  |  | B (a compound having 3 or more and less than 10 is denoted as B) | B (a compound having 3 or more and less than 10 is denoted as B) | 
CCCN1C(=O)[C@H](C2CCCC2)N(C)C(=O)C2(CCC2)NC(=O)[C@@H]2C[C@@H](OCC)CN2C(=O)[C@H](CCc2cc(F)c(C(F)(F)F)c(F)c2)NC(=O)CN(C)C(=O)[C@H](Cc2ccc(C(F)(F)F)cc2)N2CCCCC[C@@H](C2=O)N(C)C(=O)CN(C)C(=O)[C@H]([C@@H](C)CC)NC(=O)[C@H](CC(C)C)N(C)C(=O)C[C@H]1C(=O)N1CCOCC1 [PP0639] | 6.20 | B (a compound having 3 or more and less than 10 is denoted as B) | B (a compound having 3 or more and less than 10 is denoted as B) |  |  | 
CCCN(C)C(=O)[C@@H]1CC(=O)N(C)[C@@H](C(C)C)C(=O)N[C@@H]([C@@H](C)CC)C(=O)N(C)CC(=O)N(C)[C@H]2C/C=C\CCN(C2=O)[C@@H](Cc2ccc(C(F)(F)F)cc2)C(=O)N(C)CC(=O)N[C@@H](CCc2ccc(C(F)(F)F)c(OC)c2)C(=O)N2C[C@H](OCC)C[C@H]2C(=O)NC2(CCC2)C(=O)N(C)[C@@H](C2CCCC2)C(=O)N1C [PP2020] | 8.08 | A (a compound having 10 or more and less than 20 is denoted as A) | A (a compound having 10 or more and less than 20 is denoted as A) |  |  | 
CCO[C@@H]1C[C@H]2C(=O)NC3(CC(C)(C)C3)C(=O)N(C)[C@@H](C(CC)CC)C(=O)N(C)[C@H](C(=O)N(C)C)CC(=O)N(C)[C@H]3CCCCC/C=C/c4ccc(cc4)C[C@@H](C(=O)N(C)CC(=O)N[C@@H](CCc4ccc(Cl)c(Cl)c4)C(=O)N2C1)N1CC/C=C\C[C@@H](C1=O)N(C)C(=O)CN(C)C(=O)[C@H]([C@@H](C)CC)NC3=O [PP3050] | 7.71 |  |  | AA (a compound having 20 or more is denoted as AA) | A (a compound having 10 or more and less than 20 is denoted as A) | 
CCO[C@@H]1C[C@H]2C(=O)NC3(CC(C)(C)C3)C(=O)N(C)[C@@H](C3CCCC3)C(=O)N(C)[C@H](C(=O)N(C)C)CC(=O)N(C)[C@@H](CC(F)F)C(=O)N[C@@H]([C@@H](C)CC)C(=O)N(C)CC(=O)N(C)[C@H]3C/C=C\CCN(C3=O)[C@@H](Cc3ccc(C(F)(F)F)cc3)C(=O)N(C)CC(=O)N[C@@H](CCc3ccc(C(F)(F)F)c(Cl)c3)C(=O)N2C1 [PP1747] | 8.64 |  |  |  |  | NRAS /KRAS [2, 5]: A (a compound having 10 or more and less than 20 is denoted as A); HRAS /KRAS (HRAS wild-type protein; [6]): A (a compound having 10 or more and less than 20 is denoted as A)
CCCN(C)C(=O)[C@@H]1CC(=O)N(C)[C@@H](CC)C(=O)N[C@@H]([C@@H](C)CC)C(=O)N(C)CC(=O)N(C)[C@H]2C/C=C\CCN(C2=O)[C@@H](Cc2ccc(C(F)(F)F)cc2)C(=O)N(C)CC(=O)N[C@@H](CCc2cc(F)c(C(F)(F)F)c(F)c2)C(=O)N2C[C@H](OCC)C[C@H]2C(=O)NC2(CCC2)C(=O)N(C)[C@@H](C2CCCC2)C(=O)N1C [PP1699] | 8.60 |  |  |  |  | NRAS /KRAS [2, 5]: A (a compound having 10 or more and less than 20 is denoted as A); HRAS /KRAS (HRAS wild-type protein; [6]): A (a compound having 10 or more and less than 20 is denoted as A)
CCCN(C)C(=O)[C@@H]1CC(=O)N(C)[C@@H](CC(F)F)C(=O)N[C@@H]([C@@H](C)CC)C(=O)N(C)CC(=O)N(C)[C@H]2C/C=C\CCN(C2=O)[C@@H](Cc2ccc(C(F)(F)F)cc2)C(=O)N(C)CC(=O)N[C@@H](CCc2ccc(C(F)(F)F)c(OC)c2)C(=O)N2C[C@H](OCC)C[C@H]2C(=O)NC2(CC(C)(C)C2)C(=O)N(C)[C@@H](C2CCCC2)C(=O)N1C [PP2010] | 8.18 | A (a compound having 10 or more and less than 20 is denoted as A) | B (a compound having 3 or more and less than 10 is denoted as B) |  |  | 
CCOC[C@H]1C(=O)N[C@@H]([C@@H](C)CC)C(=O)N(C)CC(=O)N(C)[C@H]2C/C=C\CCN(C2=O)[C@@H](Cc2ccc(C)cc2F)C(=O)N(C)CC(=O)N[C@@H](CCc2ccc(C(F)(F)F)c(OC)c2)C(=O)N2C[C@@H](C)C[C@H]2C(=O)NC2(CC(C)(C)C2)C(=O)N(C)[C@@H](C2CCCC2)C(=O)N(C)[C@H](C(=O)N(C)CC)CC(=O)N1C [PP2697] |  |  |  | A (a compound having 10 or more and less than 20 is denoted as A) | A (a compound having 10 or more and less than 20 is denoted as A) | pIC50 ([1]; NCI-H441 cells, 4 days, CellTiter-Glo, read-out: NCl-H441 IC50): 7.37
